Data published in patent US20190241535A1, “3-SUBSTITUTED CARBONYL-NAPHTHO[2,3-B]FURANE DERIVATIVE OR PHARMACEUTICALLY ACCEPTABLE SALT THEREOF” (Boston Biomedical, Inc., priority 2014, published 2019).
Values after ≈ are worked out from the molar mass of the structure shown. Like-named read-outs stand apart in the source and are kept apart here.

How the values were obtained:
[1] = system: FaDu cell; test: Test 1: growth inhibition in cancer cell (Bulk IC50); assay type: cell-based; conditions: Homo sapiens, 96 h, adherent culture, incubated 4 days, CellTiter-Glo
Procedure: (§1) HCT-116 cell, HT-29 cell, and FaDu cell were obtained from the American Type Culture Collection (ATCC). HCT-116 cell and HT-29 cell were cultivated at 37° C. in the presence of 5% CO2 using McCoy's 5a medium containing 10% fetal bovine serum (FBS), and 1% penicillin/streptomycin; and FaDu cell was cultivated at 37° C. in the presence of 5% CO2 using MEM containing 10% FBS, 1% non-essential amino acid, 1% sodium pyruvate, and 1% penicillin/streptomycin. Each cell was seeded on μClear-plate black 384 wells (Greiner bio-one Cat. No. 781091) in 300-600 cells/well, and then each test sample was added thereto to adjust the final concentration thereof in DMSO to 0.1% and the test wells were incubated for 4 days. And then, the viable cell count of each sample was measured using CellTiter-Glo® Luminescent Cell Viability Assay (Promega), and the concentration to inhibit the cell growth in each test sample by 50% was calculated (Bulk IC50 Value; μM).

[2] = system: HCT-116 cell; test: as above; assay type: cell-based; conditions: Homo sapiens, 96 h, adherent culture, incubated 4 days, CellTiter-Glo
Procedure: as §1

[3] = system: HT-29 cell; test: as above; assay type: cell-based; conditions: Homo sapiens, 96 h, adherent culture, incubated 4 days, CellTiter-Glo
Procedure: as §1

[4] = system: FaDu cell; test: Test 2: inhibition of forming cancer cell sphere (Sphere IC50); assay type: cell-based; conditions: Homo sapiens, 96 h, ultra-low attachment plate, serum-free sphere medium, 4 days, CellTiter-Glo
Procedure: (§2) HCT-116 cell, HT-29 cell, and FaDu cell were obtained from the American Type Culture Collection (ATCC). HCT-116 cell and HT-29 cell were cultivated at 37° C. in the presence of 5% CO2 using McCoy's 5a medium containing 10% fetal bovine serum (FBS), and 1% penicillin/streptomycin; and FaDu cell was cultivated at 37° C. in the presence of 5% CO2 using MEM containing 10% FBS, 1% non-essential amino acid, 1% sodium pyruvate, and 1% penicillin/streptomycin. Each of HCT-116 cell, HT-29 cell, and FaDu cell was seeded on 384 Wells Black Clear Bottom Ultra-Low Attachment Microplate (Corning Cat. No. 3827) in 350-800 cells/well, with DMEM/F12 medium containing 2% B27 supplement (GIBCO), 20 ng/mL epidermal growth factor (EGF) (peprotech), 10 ng/mL basic fibroblast growth factor (bFGF) (peprotech), 5 μg/mL insulin (Sigma), and 1% penicillin/streptomycin. Each test sample was added thereto to adjust the final concentration thereof in DMSO to 0.1% and the test wells were incubated for 4 days. And then, the viable cell count of each sample was measured using CellTiter-Glo® Luminescent Cell Viability Assay (Promega), and the concentration to inhibit the cell growth in each test sample by 50% was calculated (Sphere IC50 Value;μM).

[5] = system: HCT-116 cell; test: as above; assay type: cell-based; conditions: Homo sapiens, 96 h, ultra-low attachment plate, serum-free sphere medium, 4 days, CellTiter-Glo
Procedure: as §2

[6] = system: HT-29 cell; test: as above; assay type: cell-based; conditions: Homo sapiens, 96 h, ultra-low attachment plate, serum-free sphere medium, 4 days, CellTiter-Glo
Procedure: as §2

[7] = Test 3: solubility test; assay type: physicochemical; conditions: kinetic from dmso stock, 1% DMSO, HPLC
Procedure: Each 15 μL of each test sample (10 mM DMSO solution) was dispensed into 4 Utubes on a 96 well rack. Then, each sample was evaporated to dryness with a rotary evaporator. 3 μL of DMSO was added to each dried sample to be re-dissolved. And, 300 μL of pH 7.4 buffer was added to the 2 wells and 300 μL of pH 1.2 buffer was added to the other 2 wells. After shaking each sample solution, the samples were still stood. Then, each sample solution was centrifuged to remove insoluble matter, and 100 μL of the supernatant was picked up on a 96 well plate. Separately, 2 μL of each test sample (10 mM DMSO solution) was dispensed on a 96 well plate, and diluted with 198 μL of 50% acetonitrile to prepare each 100 μM standard solution. Further, the 100 μM standard solution was diluted with 50% acetonitrile to prepare each 10 μM standard solution. The above test samples for the solubility test and the two kinds of the standard samples were analyzed with a HPLC. The solubility of each test sample was calculated as an area ratio per the standard solutions.

[8] = Test 5: concentration of the test compounds in tumor; assay type: in vivo; conditions: mouse, po, 25 mg/kg, 25 mg/kg po
Procedure: Administration method: The test compound scaled to a given weight was suspended in 0.5% methylcellulose to prepare an administration solution. A mouse was weighed, and the administration solution was orally administered to the mouse depending on its weight.
The picked tumor was put into a tube, and 1 mL of MeOH containing an internal standard was added to the tube. The internal standard used herein was bezafibrate, the concentration of which was 200 nM. The mixture was homogenized with an electric homogenizer to prepare a tumor extract. And, a blank tumor extract was prepared with a tumor derived from an un-treated animal in the same manner. The 100 μg/mL standard solution was diluted with MeOH to prepare a sample for calibration curve which has the desired concentration. To 50 μL of the sample for calibration curve was added 50 μL of the blank tumor extract to prepare a sample for tumor calibration curve. To 50 μL of the tumor extract was added 50 μL of MeOH to prepare a sample for analyzing tumor. Each 5 μL of the samples was analyzed with an LC-MS. The calibration curve was prepared based on the peak ratio of MS peak area of the test sample per that of the internal standard, and the concentration of the sample for tumor calibration curve. The concentration/weight of the test compound in each sample was calculated based on the peak ratio of each sample, and the calibration curve. Then, the obtained weight was divided by the weight in tumor to calculate the concentration of the test compound in tumor.

[9] = animal 1, read-out: Concentration in tumor, animal 1
[10] = animal 2, read-out: Concentration in tumor, animal 2

IC50 [1]: 500 nM
IC50 [2]: 530 nM
IC50 [3]: 640 nM
IC50 [4]: 500 nM
IC50 [5]: 530 nM
IC50 [6]: 640 nM
solubility ([7]; aqueous buffer, pH 7.4 buffer, read-out: Solubility pH 7.4): 138 µg/mL (≈ 352 µM)
solubility ([7]; simulated gastric fluid, pH 1.2 buffer, read-out: Solubility pH 1.2): 160 µg/mL (≈ 408 µM)
concentration at 2 hr [8, 9]: 498 ng/mL
concentration at 2 hr [8, 10]: 260 ng/mL
concentration at 2 hr ([8]; animal 3, read-out: Concentration in tumor, animal 3): 47 ng/mL
concentration at 2 hr ([8]; mean of 3, read-out: Concentration in tumor, mean): 268 ng/mL
concentration at 6 hr [8, 9]: 329 ng/mL
concentration at 6 hr [8, 10]: 157 ng/mL
Structure (SMILES): CN1CCN(C(=O)c2c(C(F)(F)F)oc3c2C(=O)c2ccccc2C3=O)CC1 [Example 8, 3-(4-Methylpiperazine-1-carbonyl)-2-(trifluoromethyl)naphtho[2,3-b]furan-4,9-dione]
